Measured values published in BindingDB's records for doi:10.7270/Q2T72FVT (University of Pittsburgh, 2007).

target: Serine/threonine-protein kinase PLK1 (Homo sapiens, UniProt P53350); assay: Plk1 polo box domain binding inhibitors, dose response, biochemical, fluorescence polarization (AID 877)
Sequence (P53350 whole entry, the tested form may be a part): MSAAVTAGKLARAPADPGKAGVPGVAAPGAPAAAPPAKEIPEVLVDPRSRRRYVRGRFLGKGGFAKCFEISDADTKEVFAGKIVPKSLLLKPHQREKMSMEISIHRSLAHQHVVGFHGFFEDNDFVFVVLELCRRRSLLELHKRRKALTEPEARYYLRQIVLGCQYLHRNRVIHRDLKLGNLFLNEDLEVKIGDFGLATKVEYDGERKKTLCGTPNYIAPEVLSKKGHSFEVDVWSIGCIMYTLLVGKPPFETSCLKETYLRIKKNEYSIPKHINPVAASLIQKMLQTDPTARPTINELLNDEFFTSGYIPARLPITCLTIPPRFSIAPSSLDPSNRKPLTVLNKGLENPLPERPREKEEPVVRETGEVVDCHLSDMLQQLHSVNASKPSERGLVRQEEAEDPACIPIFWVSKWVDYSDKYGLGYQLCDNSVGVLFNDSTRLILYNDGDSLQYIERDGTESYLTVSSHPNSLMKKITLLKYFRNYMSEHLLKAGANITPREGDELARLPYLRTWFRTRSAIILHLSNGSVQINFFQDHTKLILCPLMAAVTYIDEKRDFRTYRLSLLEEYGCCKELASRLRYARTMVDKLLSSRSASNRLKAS

| SMILES | IC50 [µM] |
| --- | --- |
| O=C1C(=O)c2ccccc2-c2ccccc21 | 10.1 |
| Cc1ccc(-n2c(O)c(C=NCCN3CCOCC3)c(=O)[nH]c2=O)cc1 | > 50 |
| CCOC(=O)c1ccc(NC(=O)c2c(O)[nH]c(=O)[nH]c2=O)cc1 | 2.28 |
| O=c1[nH]cc(COCc2ccccc2)c(=O)[nH]1 | > 50 |
| Cc1ccc(NC2=CC(=NS(=O)(=O)c3cccs3)c3ccccc3C2=O)c(C)c1 | > 50 |
| CN1C(=O)N(C)C(=O)C2(Sc3ccccc3C2=O)C1=O [1',3'-dimethylspiro[benzothiophene-2,5'-hexahydropyrimidine]-2',3,4',6'-diquinone] | > 50 |
| Cc1ccc2c(c1)CC1(CN2C)C(=O)NC(=O)N(c2ccccc2C)C1=O (stereo not given) [1',6'-dimethyl-1-(2-methylphenyl)spiro[1,3-diazinane-5,3'-2,4-dihydroquinoline]-2,4,6-trione] | > 50 |
| Cc1nc2c(=O)n(C)c(=O)nc-2n(C)n1 [1,3,6-Trimethyl-1H-pyrimido[5,4-e][1,2,4]triazine-5,7-dione] | 14.6 |
| Cc1ccc(CNC(=O)c2cc3c(=O)n(C)c4ccccc4c3n2C)cc1 [1,5-dimethyl-N-[(4-methylphenyl)methyl]-4-oxidanylidene-pyrrolo[3,2-c]quinoline-2-carboxamide] | > 50 |
| Cn1c(=O)c(NCCO)c2c3c(cccc31)C(=O)c1ccccc1-2 [1-(2-Hydroxy-ethylamino)-3-methyl-3H-naphtho[1,2,3-de]quinoline-2,7-dione] | 1.81 |
| COc1cc(S(=O)(=O)N2CCCCCC2)ccc1-n1cnnn1 [1-(3-Methoxy-4-tetrazol-1-yl-benzenesulfonyl)-azepane] | > 50 |
| COc1ccc(CC2NCCC3(O)CCCCC23)cc1 (stereo not given) [1-(4-Methoxy-benzyl)-octahydro-isoquinolin-4a-ol] | > 50 |
| O=C1CN(c2ccc(Br)cc2)C(=O)N1CC(=O)N1CCCc2ccccc21 [1-(4-bromophenyl)-3-[2-(3,4-dihydro-1(2H)-quinolinyl)-2-oxoethyl]-2,4-imidazolidinedione] | > 50 |
| CCCSc1nc(N2CCOCC2)c2c(c1C#N)CCCC2 [1-(4-morpholinyl)-3-(propylthio)-5,6,7,8-tetrahydroisoquinoline-4-carbonitrile] | > 50 |
| CS(=O)(=O)N1CCN(C/C=C/c2ccccc2)CC1 [1-(methylsulfonyl)-4-(3-phenyl-2-propen-1-yl)piperazine] | > 50 |
| Fc1ccc(Cn2nnnc2CN2CCN(C3CCCC3)CC2)cc1 [1-Cyclopentyl-4-[1-(4-fluoro-benzyl)-1H-tetrazol-5-ylmethyl]-piperazine] | > 50 |
| NC(=O)C1(N2CCCCC2)CCN(C(=O)NC2CCCCC2)CC1 [1-N-cyclohexyl-4-piperidin-1-ylpiperidine-1,4-dicarboxamide] | > 50 |
| CC(=O)N1CCc2cc(Br)cc(S(=O)(=O)NCc3ccccn3)c21 [1-acetyl-5-bromo-N-(2-pyridinylmethyl)-2,3-dihydroindole-7-sulfonamide] | > 50 |
| CCOC(=O)c1cc2n(c1N)-c1ccccc1C2=O [1-amino-4-keto-pyrrol[1,2-a]indole-2-carboxylic acid ethyl ester] | 19.9 |
| O=C(c1ccc(-n2cnnn2)cc1)N1CCCCC1 [1-piperidinyl-[4-(1-tetrazolyl)phenyl]methanone] | > 50 |
| Cn1c(-c2cc3ccc(OC(=O)C(C)(C)C)cc3oc2=O)nc2ccccc21 [2,2-Dimethyl-propionic acid 3-(1-methyl-1H-benzoimidazol-2-yl)-2-oxo-2H-chromen-7-yl ester] | > 50 |
| O=C(Nc1cccn(Cc2c(Cl)cccc2Cl)c1=O)c1c(Cl)cccc1Cl [2,6-dichloro-N-[1-(2,6-dichlorobenzyl)-2-keto-3-pyridyl]benzamide] | > 50 |
| Nc1cc(-c2ccc(Br)cc2)nn1S(=O)(=O)c1cccc2nsnc12 [2-(2,1,3-benzothiadiazol-4-ylsulfonyl)-5-(4-bromophenyl)-3-pyrazolamine] | > 50 |
| O=C(O)C1CCCCC1C(=O)Nc1ccc2c(c1)OCCO2 (stereo not given) [2-(2,3-dihydro-1,4-benzodioxin-6-ylcarbamoyl)cyclohexane-1-carboxylic acid] | > 50 |
| COc1ccccc1C1SCCN1S(=O)(=O)c1cccc(C(F)(F)F)c1 (stereo not given) [2-(2-Methoxy-phenyl)-3-(3-trifluoromethyl-benzenesulfonyl)-thiazolidine] | > 50 |
| NC(=O)Cn1c(S(=O)(=O)Cc2ccccc2)nc2ccccc21 [2-(2-benzylsulfonylbenzimidazol-1-yl)acetamide] | > 50 |
| COc1ccc(Nc2oc(-c3ccccc3Cl)nc2C#N)cc1 [2-(2-chlorophenyl)-5-(4-methoxyanilino)-1,3-oxazole-4-carbonitrile] | > 50 |
| Cc1nn(C(C)C(=O)N2CCCCC2)c(=O)c2c1sc1ccccc12 (stereo not given) [2-(2-keto-1-methyl-2-piperidino-ethyl)-4-methyl-benzothiopheno[2,3-d]pyridazin-1-one] | > 50 |

| SMILES | IC50 [µM] |
| --- | --- |
| O=C(Cc1ccc(Cl)cc1)NCCN1CCCC1 [2-(4-Chloro-phenyl)-N-(2-pyrrolidin-1-yl-ethyl)-acetamide] | > 50 |
| CNC(=O)CC(C(=O)O)c1ccc(OCC(C)C)cc1 (stereo not given) [2-(4-Isobutoxy-phenyl)-N-methyl-succinamic acid] | > 50 |
| Cc1ccc(OCC(=O)Nc2ccc(N3CCOCC3)cc2)cc1 [2-(4-methylphenoxy)-N-(4-morpholin-4-ylphenyl)acetamide] | > 50 |
| C=CCSc1nccc(-c2cc(Cl)sc2Cl)n1 [2-(allylsulfanyl)-4-(2,5-dichloro-3-thienyl)pyrimidine] | > 50 |
| CCNC(=O)NC(=O)C(C)OC(=O)c1cccnc1SC (stereo not given) [2-(methylthio)-3-pyridinecarboxylic acid [1-(ethylcarbamoylamino)-1-oxopropan-2-yl] ester] | > 50 |
| Nc1ccc2c(c1)C(=O)C(=O)c1ccccc1-2 [2-Amino-phenanthrene-9,10-dione] | 5.9 |
| O=C(CC1C(=O)NCCN1C(=S)Nc1ccccc1)Nc1ccc2c(c1)OCCO2 (stereo not given) [2-[1-(anilinocarbonothioyl)-3-oxo-2-piperazinyl]-N-(2,3-dihydro-1,4-benzodioxin-6-yl)acetamide] | > 50 |
| O=C(CN1C(=O)c2ccccc2C1=O)N1CCN(c2nnc(-c3ccccc3)c3ccccc23)CC1 [2-[2-keto-2-[4-(4-phenylphthalazin-1-yl)piperazino]ethyl]isoindoline-1,3-quinone] | > 50 |
| CCC(Sc1nc2nnc(C)c-2c(N)n1-c1cccc(Cl)c1)C(=O)NCCOC (stereo not given) [2-[4-amino-5-(3-chlorophenyl)-3-methylpyrazolo[3,4-d]pyrimidin-6-yl]sulfanyl-N-(2-methoxyethyl)butanamide] | > 50 |
| O=NCc1cc(Br)ccc1OCC(=O)O [2-[4-bromanyl-2-(hydroxyiminomethyl)phenoxy]ethanoic acid] | > 50 |
| CCN1C(=O)/C(=C/c2nc3ccccc3c(=O)n2-c2ccccc2)c2ccccc21 [2-[(1-ethyl-2-oxo-1,2-dihydro-3H-indol-3-ylidene)methyl]-3-phenyl-4(3H)-quinazolinone] | > 50 |
| COc1ccc(S(=O)(=O)N(C)CC(=O)Nc2ccccc2C(F)(F)F)cc1 [2-[(4-methoxyphenyl)sulfonyl-methyl-amino]-N-[2-(trifluoromethyl)phenyl]acetamide] | > 50 |
| CCn1ncc(CN2CCN(C(=O)Nc3ccccc3C(=O)OC)CC2)c1C [2-[[4-[(1-ethyl-5-methyl-pyrazol-4-yl)methyl]piperazine-1-carbonyl]amino]benzoic acid methyl ester] | > 50 |
| CCn1c(SCC(N)=O)nnc1-c1ccc(S(=O)(=O)N2CCN(C)CC2)cc1 [2-[[4-ethyl-5-[4-(4-methylpiperazin-1-yl)sulfonylphenyl]-1,2,4-triazol-3-yl]sulfanyl]acetamide] | > 50 |
| COC(=O)CNC(=O)C12CC3(C)CC(C)(CC(C)(C3)C1)C2 [2-[[oxo-(3,5,7-trimethyl-1-adamantyl)methyl]amino]acetic acid methyl ester] | > 50 |
| Cc1oc2c(c1C(=O)c1ccccc1)C(=O)C(=O)c1ccccc1-2 [2-methyl-3-(phenylcarbonyl)benzo[g][1]benzofuran-4,5-dione] | 43.6 |
| COc1cc(OC)cc(C(=O)NCCCN2CCOCC2)c1 [3,5-Dimethoxy-N-(3-morpholin-4-yl-propyl)-benzamide] | > 50 |
| Cc1cccc(-n2c(CCn3nc(C)c([N+](=O)[O-])c3C)n[nH]c2=S)c1 [3-(2-{4-nitro-3,5-dimethyl-1H-pyrazol-1-yl}ethyl)-4-(3-methylphenyl)-5-sulfanyl-4H-1,2,4-triazole] | > 50 |
| Cc1cc(C)n(-c2nnc3n2N=C(c2ccccc2)CS3)n1 [3-(3,5-dimethyl-1-pyrazolyl)-6-phenyl-7H-[1,2,4]triazolo[3,4-b][1,3,4]thiadiazine] | > 50 |
| Cn1nc(-c2ccc(Cl)cc2)nc2c(=O)n(C)c(=O)nc1-2 [3-(4-Chloro-phenyl)-1,6-dimethyl-1H-pyrimido[5,4-e][1,2,4]triazine-5,7-dione] | 2.46 |
| COc1ccc(Cn2c(=O)sc3ccccc32)cc1 [3-(4-Methoxy-benzyl)-3H-benzothiazol-2-one] | > 50 |
| COC(=O)CCc1c(C)[nH]c(=S)[nH]c1=O [3-(6-methyl-4-oxo-2-sulfanylidene-1H-pyrimidin-5-yl)propanoic acid methyl ester] | > 50 |
| CC(C)Sc1nc(N2CCOCC2)c2c(c1C#N)CC(C)(C)N(C)C2 [3-(isopropylthio)-6,6,7-trimethyl-1-morpholino-5,8-dihydro-2,7-naphthyridine-4-carbonitrile] | > 50 |
| O=C1CCC(C(=O)O)(c2ccccc2)C1 (stereo not given) [3-Oxo-1-phenyl-cyclopentanecarboxylic acid] | > 50 |
| Cc1ccc2cc(C(c3nnnn3C3CCCC3)N3CCN(c4ccccc4)CC3)c(=O)[nH]c2c1 (stereo not given) [3-[(1-cyclopentyltetrazol-5-yl)-(4-phenylpiperazin-1-yl)methyl]-7-methyl-1H-quinolin-2-one] | > 50 |
| CC1CCCC(NC2CCCCNC2=O)C1 (stereo not given) [3-[(3-methylcyclohexyl)amino]-2-azepanone] | > 50 |
| Cc1nc2cccc(C)n2c(=O)c1Cl [3-chloranyl-2,6-dimethyl-pyrido[1,2-a]pyrimidin-4-one] | > 50 |
